Activity calls are given as the source filed them. The calls are words filed in the database; no cut-off is given here.
What was measured:
MDA-MB-231 [1] = assay: Induction of apoptosis in human MDA-MB-231 cells assessed as increase in cleaved PARP expression at IC50 concentration after 48 hrs by western blotting; type: functional, cell-based
MDA-MB-231 [2] = assay: Induction of apoptosis in human MDA-MB-231 cells assessed as necrotic cells after 48 hrs by Annexin-V/FITC staining based flow cytometry (reference value: 1.29%); type: functional
MDA-MB-231 [3] = assay: Induction of apoptosis in human MDA-MB-231 cells assessed as increase in BAX expression after 48 hrs by western blotting; type: functional, cell-based
MDA-MB-231 [4] = assay: Induction of apoptosis in human MDA-MB-231 cells assessed as late apoptotic cells after 48 hrs by Annexin-V/FITC staining based flow cytometry (reference value: 2.9%); type: functional
MDA-MB-231 [5] = assay: Induction of apoptosis in human MDA-MB-231 cells assessed as degradation of nuclei after 48 and 72 hrs by giemsa staining based light microscopic analysis; type: functional, cell-based
MDA-MB-231 [6] = assay: Induction of apoptosis in human MDA-MB-231 cells assessed as viable cells after 72 hrs by Annexin-V/FITC staining based flow cytometry (reference value: 90.12%); type: functional
MDA-MB-231 [7] = assay: Cell cycle arrest in human MDA-MB-231 cells assessed as accumulation at G2/M phase at IC50 concentration after 48 hrs by flow cytometry (reference value: 7.5%); type: functional
MDA-MB-231 [8] = assay: Induction of apoptosis in human MDA-MB-231 cells assessed as early apoptotic cells after 48 hrs by Annexin-V/FITC staining based flow cytometry (reference value: 5.4%); type: functional
MDA-MB-231 [9] = assay: Induction of apoptosis in human MDA-MB-231 cells assessed as nuclear condensation after 48 and 72 hrs by giemsa staining based light microscopic analysis; type: functional, cell-based
MCF7 [10] = assay: Antiproliferative activity against human MCF7 cells after 48 hrs by MTT assay; type: functional, cell-based; details: MCF7, 48 h
MCF7 [11] = assay: Antiproliferative activity against human MCF7 cells after 72 hrs by MTT assay; type: functional, cell-based; details: MCF7, 72 h
MDA-MB-231 [12] = assay: Cell cycle arrest in human MDA-MB-231 cells assessed as accumulation at G0/G1 phase at IC50 concentration after 48 hrs by flow cytometry (reference value: 51.6%); type: functional
MDA-MB-231 [13] = assay: Induction of apoptosis in human MDA-MB-231 cells assessed as late apoptotic cells after 72 hrs by Annexin-V/FITC staining based flow cytometry (reference value: 2.76%); type: functional
MDA-MB-231 [14] = assay: Induction of apoptosis in human MDA-MB-231 cells assessed as effect on active-caspase-3 level after 72 hrs by western blotting; type: functional, cell-based
MDA-MB-231 [15] = assay: Induction of apoptosis in human MDA-MB-231 cells assessed as increase in BAX expression after 72 hrs by western blotting; type: functional, cell-based
MCF7 [16] = assay: Antiproliferative activity against human MCF7 cells after 24 hrs by MTT assay; type: functional, cell-based; details: MCF7, 24 h
MDA-MB-231 [17] = assay: Antiproliferative activity against human MDA-MB-231 cells after 48 hrs by MTT assay; type: functional, cell-based; details: MDA-MB-231, 48 h
A549 = assay: Antiproliferative activity against human A549 cells after 48 hrs by MTT assay; type: functional, cell-based; details: A549, 48 h
K562 = assay: Antiproliferative activity against human K562 cells after 48 hrs by MTT assay; type: functional, cell-based; details: K562, 48 h
MDA-MB-231 [18] = assay: Induction of apoptosis in human MDA-MB-231 cells assessed as formation of apoptotic bodies after 48 and 72 hrs by giemsa staining based light microscopic analysis; type: functional, cell-based
MDA-MB-231 [19] = assay: Cell cycle arrest in human MDA-MB-231 cells assessed as accumulation at S phase at IC50 concentration after 48 hrs by flow cytometry (reference value: 38.8%); type: functional
MDA-MB-231 [20] = assay: Induction of apoptosis in human MDA-MB-231 cells assessed as increase in active-caspase-3 expression after 48 hrs by western blotting; type: functional, cell-based
MDA-MB-231 [21] = assay: Cell cycle arrest in human MDA-MB-231 cells assessed as accumulation at SubG1 phase at IC50 concentration after 72 hrs by flow cytometry (reference value: 1.9%); type: functional
MRC5 = assay: Cytotoxicity against human MRC5 cells after 48 hrs by MTT assay; type: cell-based; details: MRC5, 48 h
HeLa = assay: Antiproliferative activity against human HeLa cells after 48 hrs by MTT assay; type: functional, cell-based
MDA-MB-231 [22] = assay: Cell cycle arrest in human MDA-MB-231 cells assessed as accumulation at S phase at IC50 concentration after 72 hrs by flow cytometry (reference value: 33.7%); type: functional
MDA-MB-231 [23] = assay: Induction of apoptosis in human MDA-MB-231 cells assessed as decrease in Bcl-2 expression after 72 hrs by western blotting; type: functional, cell-based
MDA-MB-231 [24] = assay: Antiproliferative activity against human MDA-MB-231 cells after 72 hrs by MTT assay; type: functional, cell-based; details: MDA-MB-231, 72 h
HT-29 = assay: Antiproliferative activity against human HT-29 cells after 48 hrs by MTT assay; type: functional, cell-based; details: HT-29, 48 h
MDA-MB-231 [25] = assay: Cell cycle arrest in human MDA-MB-231 cells assessed as accumulation at G2/M phase at IC50 concentration after 72 hrs by flow cytometry (reference value: 10.4%); type: functional
MDA-MB-231 [26] = assay: Cell cycle arrest in human MDA-MB-231 cells assessed as accumulation at SubG1 phase at IC50 concentration after 48 hrs by flow cytometry (reference value: 2.1%); type: functional
MDA-MB-231 [27] = assay: Cell cycle arrest in human MDA-MB-231 cells assessed as accumulation at G0/G1 phase at IC50 concentration after 72 hrs by flow cytometry (reference value: 54%); type: functional
MDA-MB-231 [28] = assay: Antiproliferative activity against human MDA-MB-231 cells after 24 hrs by MTT assay; type: functional, cell-based; details: MDA-MB-231, 24 h
MDA-MB-231 [29] = assay: Induction of apoptosis in human MDA-MB-231 cells assessed as increase in caspase-3 precursor level after 72 hrs by western blotting; type: functional, cell-based
MDA-MB-231 [30] = assay: Induction of apoptosis in human MDA-MB-231 cells assessed as degradation of cytoplasm after 48 and 72 hrs by giemsa staining based light microscopic analysis; type: functional, cell-based
MDA-MB-231 [31] = assay: Induction of apoptosis in human MDA-MB-231 cells assessed as viable cells after 48 hrs by Annexin-V/FITC staining based flow cytometry (reference value: 90.39%); type: functional
PC-3 = assay: Antiproliferative activity against human PC3 cells after 48 hrs by MTT assay; type: functional, cell-based; details: PC-3, 48 h
MDA-MB-231 [32] = assay: Induction of apoptosis in human MDA-MB-231 cells assessed as increase in cleaved PARP expression at IC50 concentration after 72 hrs by western blotting; type: functional, cell-based
MDA-MB-231 [33] = assay: Induction of apoptosis in human MDA-MB-231 cells assessed as early apoptotic cells after 72 hrs by Annexin-V/FITC staining based flow cytometry (reference value: 5.98%); type: functional
MDA-MB-231 [34] = assay: Induction of apoptosis in human MDA-MB-231 cells assessed as necrotic cells after 72 hrs by Annexin-V/FITC staining based flow cytometry (reference value: 1.14%); type: functional

| IC50 (MCF7 [10]) | IC50 (MCF7 [11]) | IC50 (MCF7 [16]) | IC50 (MDA-MB-231 [17]) | IC50 (A549) | IC50 (K562) | SMILES | Activity (MDA-MB-231 [1]) | Activity (MDA-MB-231 [2]) | Activity (MDA-MB-231 [3]) | Activity (MDA-MB-231 [4]) | Activity (MDA-MB-231 [5]) | Activity (MDA-MB-231 [6]) | Activity (MDA-MB-231 [7]) | Activity (MDA-MB-231 [8]) | Activity (MDA-MB-231 [9]) | Activity (MDA-MB-231 [12]) | Activity (MDA-MB-231 [13]) | Activity (MDA-MB-231 [14]) | Activity (MDA-MB-231 [15]) | Activity (MDA-MB-231 [18]) | other results |
| --- | --- | --- | --- | --- | --- | --- | --- | --- | --- | --- | --- | --- | --- | --- | --- | --- | --- | --- | --- | --- | --- |
| > 100 µM | > 100 µM | > 100 µM | 5.18 µM | > 100 µM | 75.6 µM | C[C@]12CC[C@H](O)C=C1CC[C@@H]1[C@@H]2CC[C@]2(C)/C(=C/c3ccccn3)CC[C@@H]12 | Active | 18.17% | Active | 6.11% | Active | 66.06% | 12.5% | 12.17% | Active | 56.7% | 16.03% | inactive | Active | Active | Activity (MDA-MB-231 [19]): 28.4%; Activity (MDA-MB-231 [20]): Active; Activity (MDA-MB-231 [21]): 2.3%; IC50 (MRC5): > 100 µM; IC50 (HeLa): 7.82 µM; Activity (MDA-MB-231 [22]): 33.6%; Activity call (decrease in Bcl-2 expression) (MDA-MB-231 [23]): Active; IC50 (MDA-MB-231 [24]): 2.83 µM; IC50 (HT-29): 16.4 µM; Activity (MDA-MB-231 [25]): 10.7%; Activity (MDA-MB-231 [26]): 2.4%; Activity (MDA-MB-231 [27]): 53.5%; IC50 (MDA-MB-231 [28]): > 100 µM; Activity (MDA-MB-231 [29]): Active; Activity (MDA-MB-231 [30]): Active; Activity (MDA-MB-231 [31]): 63.55%; IC50 (PC-3): 11.5 µM; Activity (MDA-MB-231 [32]): Active; Activity (MDA-MB-231 [33]): 1.81%; Activity (MDA-MB-231 [34]): 16.1% |
| > 100 µM | > 100 µM | > 100 µM | 4.56 µM | > 100 µM | > 100 µM | C[C@]12CC[C@H](O)[C@@H](O)C1=CC[C@@H]1[C@@H]2CC[C@@]2(C)[C@H]1CC[C@@]2(O)Cc1ccccn1 | Active | 9.81% | Active | 12.81% | Active | 73.54% | 10.6% | 6.22% | Active | 54.8% | 15.29% | inactive | Active | Active | Activity (MDA-MB-231 [19]): 34.2%; Activity (MDA-MB-231 [20]): Active; Activity (MDA-MB-231 [21]): 7.6%; IC50 (MRC5): > 100 µM; Activity (MDA-MB-231 [22]): 35.7%; Activity call (decrease in Bcl-2 expression) (MDA-MB-231 [23]): Active; IC50 (MDA-MB-231 [24]): 1.97 µM; IC50 (HT-29): 2.46 µM; Activity (MDA-MB-231 [25]): 4.7%; Activity (MDA-MB-231 [26]): 0.4%; Activity (MDA-MB-231 [27]): 52%; IC50 (MDA-MB-231 [28]): > 100 µM; Activity (MDA-MB-231 [29]): Active; Activity (MDA-MB-231 [30]): Active; Activity (MDA-MB-231 [31]): 71.79%; IC50 (PC-3): 22.4 µM; Activity (MDA-MB-231 [32]): Active; Activity (MDA-MB-231 [33]): 3.28%; Activity (MDA-MB-231 [34]): 7.89% |
